Measured values published in US11135234B2, “Effective aminoglycoside antibiotic for multidrug-resistant bacteria” (MICROBIAL CHEMISTRY RESEARCH FOUNDATION, priority 2015, dated 2021).
Values after ≈ are worked out from the molar mass of the structure shown.

Experiments:
S. aureus RN4220 = assay: MIC, agar plate dilution method, S. aureus RN4220; type: cell-based, Staphylococcus aureus; settings: Staphylococcus aureus, RN4220, S. aureus RN4220, Sensitive bacterium, read-out: minimal inhibitory concentration (MIC)
Outline: (§1)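 Minimal inhibitory concentration (μg/mL) was determined by agar plate dilution following the Japan Society of Chemotherapy method.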

S. aureus RN4220/pMS520 = assay: MIC, agar plate dilution method, S. aureus RN4220/pMS520; type: cell-based, Staphylococcus aureus; settings: Staphylococcus aureus, MRSA, read-out: minimal inhibitory concentration (MIC), S. aureus RN4220/pMS520, MRSA
Outline: as §1

S. aureus MF490 = assay: MIC, agar plate dilution method, S. aureus MF490; type: cell-based, Staphylococcus aureus; settings: Staphylococcus aureus, MRSA, read-out: minimal inhibitory concentration (MIC)
Outline: as §1

E. faecium ATCC19434 = assay: MIC, agar plate dilution method, E. faecium ATCC19434; type: cell-based, Enterococcus faecium; settings: Enterococcus faecium, ATCC19434, E. faecium ATCC19434, read-out: minimal inhibitory concentration (MIC)
Outline: as §1

E. coli JM109/pMW218 = assay: MIC, agar plate dilution method, E. coli JM109/pMW218; type: cell-based, Escherichia coli; settings: Escherichia coli, JM109/PMW218, E. coli JM109/pMW218, Sensitive bacterium, read-out: minimal inhibitory concentration (MIC)
Outline: as §1

[1] = test system: K. pneumoniae ATCC BAA-1705; assay: MIC, agar plate dilution method, K. pneumoniae ATCC BAA-1705; type: cell-based, Klebsiella pneumoniae; settings: Klebsiella pneumoniae, ATCCBAA1705, K. pneumoniae ATCC BAA-1705, KPC-producing strain, read-out: minimal inhibitory concentration (MIC)
Outline: as §1

[2] = test system: K. pneumoniae ATCC BAA-2146; assay: MIC, agar plate dilution method, K. pneumoniae ATCC BAA-2146; type: cell-based, Klebsiella pneumoniae; settings: Klebsiella pneumoniae, ATCCBAA2146, K. pneumoniae ATCC BAA-2146, NDM-producing strain, read-out: minimal inhibitory concentration (MIC)
Outline: as §1

[3] = test system: A. baumannii ATCC BAA-1710; assay: MIC, agar plate dilution method, A. baumannii ATCC BAA-1710; type: cell-based, Acinetobacter baumannii; settings: Acinetobacter baumannii, ATCCBAA1710, A. baumannii ATCC BAA-1710, MDRA, read-out: minimal inhibitory concentration (MIC)
Outline: as §1

S. marcescens TH-0447 = assay: MIC, agar plate dilution method, S. marcescens TH-0447; type: cell-based, Serratia marcescens; settings: Serratia marcescens, TH0447, S. marcescens TH-0447, AMK-resistant, read-out: minimal inhibitory concentration (MIC)
Outline: as §1

S. marcescens GN6944 = assay: MIC, agar plate dilution method, S. marcescens GN6944; type: cell-based, Serratia marcescens; settings: Serratia marcescens, S. marcescens GN6944, GM-resistant, read-out: minimal inhibitory concentration (MIC)
Outline: as §1

P. aeruginosa PAO1 = assay: MIC, agar plate dilution method, P. aeruginosa PAO1; type: cell-based, Pseudomonas aeruginosa; settings: Pseudomonas aeruginosa, PAO1, P. aeruginosa PAO1, Sensitive bacterium, read-out: minimal inhibitory concentration (MIC)
Outline: as §1

P. aeruginosa PAO1/GN315 = assay: MIC, agar plate dilution method, P. aeruginosa PAO1/GN315; type: cell-based, Pseudomonas aeruginosa; settings: Pseudomonas aeruginosa, read-out: minimal inhibitory concentration (MIC), P. aeruginosa PAO1/GN315, AMK-resistant
Outline: as §1

P. aeruginosa MSC17707 = assay: MIC, agar plate dilution method, P. aeruginosa MSC17707; type: cell-based, Pseudomonas aeruginosa; settings: Pseudomonas aeruginosa, MSC17707, P. aeruginosa MSC17707, AMK-resistant, read-out: minimal inhibitory concentration (MIC)
Outline: as §1

P. aeruginosa MSC01035 = assay: MIC, agar plate dilution method, P. aeruginosa MSC01035; type: cell-based, Pseudomonas aeruginosa; settings: Pseudomonas aeruginosa, P. aeruginosa MSC01035, ABK-resistant, read-out: minimal inhibitory concentration (MIC)
Outline: as §1

Structure (SMILES) | MIC (S. aureus RN4220) | MIC (S. aureus RN4220/pMS520) | MIC (S. aureus MF490) | MIC (E. faecium ATCC19434) | MIC (E. coli JM109/pMW218) | MIC [1] | MIC [2] | MIC [3] | MIC (S. marcescens TH-0447) | MIC (S. marcescens GN6944) | MIC (P. aeruginosa PAO1) | MIC (P. aeruginosa PAO1/GN315) | MIC (P. aeruginosa MSC17707) | MIC (P. aeruginosa MSC01035)
CNC1C(O[C@H]2OC(C)[C@@H](N)[C@H](O)C2O)O[C@H]2CC(N)[C@@H](O[C@H]3CC[C@H](N)CC3N)OC2C1O (stereo partly shown) [Compound R6, 5,6,6″-trideoxyapramycin] | 2 µg/mL (≈ 4.07 µM) | 2 µg/mL (≈ 4.07 µM) | 8 µg/mL (≈ 16.3 µM) | 16 µg/mL (≈ 32.5 µM) | 1 µg/mL (≈ 2.03 µM) | 2 µg/mL (≈ 4.07 µM) | 1 µg/mL (≈ 2.03 µM) | 8 µg/mL (≈ 16.3 µM) | 8 µg/mL (≈ 16.3 µM) | 4 µg/mL (≈ 8.14 µM) | 8 µg/mL (≈ 16.3 µM) | 8 µg/mL (≈ 16.3 µM) | 16 µg/mL (≈ 32.5 µM) | 16 µg/mL (≈ 32.5 µM)
CNC1C(O[C@H]2OC(CO)[C@@H](NC)[C@H](O)C2O)O[C@H]2CC(N)[C@@H](O[C@H]3CC(O)[C@H](N)CC3N)OC2C1O (stereo partly shown) [Compound S1-a, 5-deoxy-4″-N-methylapramycin] | 2 µg/mL (≈ 3.72 µM) | 2 µg/mL (≈ 3.72 µM) | 8 µg/mL (≈ 14.9 µM) | 32 µg/mL (≈ 59.5 µM) | 1 µg/mL (≈ 1.86 µM) | 1 µg/mL (≈ 1.86 µM) | 1 µg/mL (≈ 1.86 µM) | 8 µg/mL (≈ 14.9 µM) | 8 µg/mL (≈ 14.9 µM) | 4 µg/mL (≈ 7.44 µM) | 4 µg/mL (≈ 7.44 µM) | 4 µg/mL (≈ 7.44 µM) | 4 µg/mL (≈ 7.44 µM) | 4 µg/mL (≈ 7.44 µM)
CNC1C(O[C@H]2OC(CO)[C@@H](NCCN)[C@H](O)C2O)O[C@H]2CC(N)[C@@H](O[C@H]3CC(O)[C@H](N)CC3N)OC2C1O (stereo partly shown) [Compound S1-b, 4″-N-(2-aminoethyl)-5-deoxyapramycin] | 2 µg/mL (≈ 3.53 µM) | 1 µg/mL (≈ 1.76 µM) | 4 µg/mL (≈ 7.06 µM) | 8 µg/mL (≈ 14.1 µM) | 0.5 µg/mL (≈ 0.882 µM) | 1 µg/mL (≈ 1.76 µM) | 1 µg/mL (≈ 1.76 µM) | 4 µg/mL (≈ 7.06 µM) | 8 µg/mL (≈ 14.1 µM) | 4 µg/mL (≈ 7.06 µM) | 4 µg/mL (≈ 7.06 µM) | 4 µg/mL (≈ 7.06 µM) | 4 µg/mL (≈ 7.06 µM) | 4 µg/mL (≈ 7.06 µM)
CNC1C(O[C@H]2OC(CO)[C@@H](NCCCN)[C@H](O)C2O)O[C@H]2CC(N)[C@@H](O[C@H]3CC(O)[C@H](N)CC3N)OC2C1O (stereo partly shown) [Compound S1-c, 4″-N-(3-aminopropyl)-5-deoxyapramycin] | 2 µg/mL (≈ 3.44 µM) | 2 µg/mL (≈ 3.44 µM) | 4 µg/mL (≈ 6.89 µM) | 8 µg/mL (≈ 13.8 µM) | 1 µg/mL (≈ 1.72 µM) | 1 µg/mL (≈ 1.72 µM) | 1 µg/mL (≈ 1.72 µM) | 8 µg/mL (≈ 13.8 µM) | 8 µg/mL (≈ 13.8 µM) | 8 µg/mL (≈ 13.8 µM) | 4 µg/mL (≈ 6.89 µM) | 4 µg/mL (≈ 6.89 µM) | 8 µg/mL (≈ 13.8 µM) | 8 µg/mL (≈ 13.8 µM)
CNC1C(O[C@H]2OC(CO)[C@@H](NC(CN)CN)[C@H](O)C2O)O[C@H]2CC(N)[C@@H](O[C@H]3CC(O)[C@H](N)CC3N)OC2C1O (stereo partly shown) [Compound S1-d, 4″-N-(1,3-diaminopropan-2-yl)-5-deoxyapramycin] | 1 µg/mL (≈ 1.68 µM) | 1 µg/mL (≈ 1.68 µM) | 4 µg/mL (≈ 6.71 µM) | 16 µg/mL (≈ 26.9 µM) | 1 µg/mL (≈ 1.68 µM) | 1 µg/mL (≈ 1.68 µM) | 1 µg/mL (≈ 1.68 µM) | 8 µg/mL (≈ 13.4 µM) | 8 µg/mL (≈ 13.4 µM) | 4 µg/mL (≈ 6.71 µM) | 2 µg/mL (≈ 3.36 µM) | 4 µg/mL (≈ 6.71 µM) | 4 µg/mL (≈ 6.71 µM) | 4 µg/mL (≈ 6.71 µM)
